Results taken from ChEMBL document CHEMBL4196045, “Identification of cisapride as new inhibitor of putrescine uptake in Trypanosoma cruzi by combined ligand- and structure-based virtual screening” (Eur J Med Chem, 2018).
Calls of active or inactive are those of the source. No cut-off for these calls is given here.

Experiments:
Trypanosoma cruzi [1] = assay: Antitrypanosomal activity against Trypanosoma cruzi Y epimastigotes after 7 days by hemocytometry; assay type: functional, organism-based; conditions: 168 h
[2] = molecular target: T1, Putative amino acid transporter PAT12 (Trypanosoma cruzi) (UniProt Q6QT93); assay: Inhibition of Trypanosoma cruzi Y epimastigotes PAT12 assessed as reduction in initial velocity of [14C]-putrescine uptake at 50 uM in presence of non-radioactive putrescine by liquid scintillation counting method
T1 sequence (whole entry): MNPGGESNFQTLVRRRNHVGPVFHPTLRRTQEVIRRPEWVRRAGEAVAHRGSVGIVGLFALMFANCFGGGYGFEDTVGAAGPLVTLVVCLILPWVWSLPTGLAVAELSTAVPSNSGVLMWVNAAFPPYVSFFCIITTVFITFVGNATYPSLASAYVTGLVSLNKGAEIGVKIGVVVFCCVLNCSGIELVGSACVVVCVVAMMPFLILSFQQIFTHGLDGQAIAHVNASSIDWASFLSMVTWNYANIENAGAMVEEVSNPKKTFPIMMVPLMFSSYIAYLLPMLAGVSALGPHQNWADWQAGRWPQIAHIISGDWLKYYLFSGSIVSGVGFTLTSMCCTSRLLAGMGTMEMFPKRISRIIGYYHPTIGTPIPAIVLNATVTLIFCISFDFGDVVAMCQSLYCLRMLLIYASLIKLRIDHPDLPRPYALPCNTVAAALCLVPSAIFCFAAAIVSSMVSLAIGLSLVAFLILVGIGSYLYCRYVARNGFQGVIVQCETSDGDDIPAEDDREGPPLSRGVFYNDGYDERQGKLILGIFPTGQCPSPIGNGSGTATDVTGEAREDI

Trypanosoma cruzi [3] = assay: Inhibition of Trypanosoma cruzi Y epimastigotes AAAP411 assessed as reduction in [1,4-14C]-arginine uptake in presence of non-radioactive arginine by liquid scintillation counting method
Trypanosoma cruzi [4] = assay: Antitrypanosomal activity against Trypanosoma cruzi Y epimastigotes at 100 uM after 7 days by hemocytometry; assay type: functional, organism-based
Trypanosoma cruzi [5] = assay: Antitrypanosomal activity against Trypanosoma cruzi Y epimastigotes at 200 uM after 7 days by hemocytometry; assay type: functional, organism-based

SMILES | IC50 (Trypanosoma cruzi [1]) [µM] | inhibition [2] | inhibition (Trypanosoma cruzi [3]) | Activity (Trypanosoma cruzi [4]) | Activity (Trypanosoma cruzi [5])
NCc1ccccc1OC1CCCC1 | 41.1 | inactive | inactive | Active | 
Cc1cccc(C)c1OCC(C)N (racemic) |  | inactive |  |  | inactive
CN(CCCOc1ccc2c(c1)OCO2)C1CCC(CO)CC1 (stereo not drawn) |  | inactive |  |  | inactive
